Assay results from patent US20010024657A1, “Pharmaceutical oral patch for controlled release of pharmaceutical agents in the oral cavity” (priority 1997, published 2001).
Entries after “also recorded” stand apart in the source; their conditions may differ.

How the values were obtained:
[1] = cited from earlier work; for solubility in buffer (in words): neutral to slightly basic, pH 7-8, high buffering capacity
[2] = In vivo release of clotrimazole from patches on the upper teeth, measured in saliva of volunteers; set-up: species or system human; conditions: total dose of 10 mg clotrimazole from patches
Method: Each volunteer attached two pharmaceutical oral patches of 5 mg clotrimazole to the buccal side of the upper teeth. No food or drink was allowed during the tests. Saliva samples were expectorated at given time intervals and tested for clotrimazole by HPLC. The patch was affixed to the tooth by using a drop of a solution of Eudragit S™ in ethanol.
The in vivo release from the patches made from three formulations of differing molar ratios of NaOH were tested in vivo. Formulation 193-5 has a low level of NaOH (percent molar ratio of 11.5%) and the patch made therefrom is expected to release drug even more slowly than the patch made from formulation 193-34.

time of clinically significant levels of clotrimazole in saliva [2] | SMILES | solubility in buffer (in words) [1] | solubility in water (in words) [1]
– | CC(C(=O)O)c1ccc(-c2ccccc2)c(F)c1 (stereo not drawn) [flurbiprofen] | soluble in buffer | poorly soluble in water; also recorded: only slightly soluble
at least 6 hours | Clc1ccccc1C(c1ccccc1)(c1ccccc1)n1ccnc1 [clotrimazole, Clotrimazole] | – | poorly water soluble
– | O=C([O-])c1ccccc1O.[Na+] [sodium salicylate] | very soluble | very soluble
